From patent US11879145B2, “Reagents and methods for replication, transcription, and translation in semi-synthetic organisms” (The Scripps Research Institute, priority 2019, dated 2024)
“And” between values parts separate entries of the source, which are not always exact repeats. Equal entries are not always repeated. “Also recorded” adds a separate entry of the source.

What was measured:
[1] = system: sfGFP^151(AXC) gene; assay: UBP retention in the sfGFP gene by streptavidin gel shift assay (in vivo screen of dXTPs); type: cell-based, E. coli; conditions: dTPT3TP 10 μM, strain YZ3
Method: (§1) These plasmids were used to transform E. coli expressing the nucleoside triphosphate transporter PtNTT2 (strain YZ38) and harboring a plasmid encoding Mb PylRS. After transformation, colonies were selected and grown to an OD600˜1.0 in liquid media supplemented with dTPT3TP (10 μM) and one of seven different dXTPs (FIG. 2) added at varying concentrations (150 μM, 10 μM, or 5 μM). Cells were then diluted into fresh expression media containing the same unnatural deoxyribonucleotides as well as NaMTP (250 μM), TPT3TP (30 μM), and AzK (10 mM). After a brief incubation, T7 RNAP and tRNAPyl(GYT) expression was induced by the addition of isopropyl-β-d-thiogalactoside (IPTG, 1 mM). After an additional 1 h of incubation, the expression of sfGFP^151(AXC) was initiated by the addition of anhydrotetracycline (aTc, 100 ng/mL).
(§2) Analysis of PCR products. After 2.5 h, plasmids were isolated and then the genes of interest were independently PCR amplified using d5SICSTP and a biotinylated analog of dNaMTP7. The resulting PCR product was analyzed via a gel mobility shift assay using streptavidin to quantify the UBP retained as a percent shift of the total amplified product (hereafter referred to as the streptavidin gel shift assay) (FIG. 3A and FIG. 3B).
In vivo Translation Screen of dXTPs. An overnight culture of the SSO strain YZ3 carrying the pGEX-MbPylRS TetR plasmid was grown in 2×YT supplemented with 50 mM potassium phosphate, […] chloramphenicol and 100 μg/mL carbenicillin (herein referred to in this section as “media”), then diluted back to an OD600 of 0.03 in the same media and grown to an OD600 of 0.4 to 0.6. The culture was then chilled with shaking over ice-water for 15 minutes then pelleted by centrifugation at 3,200×g for 10 min. Cells were then resuspended and washed with ice-cold ddH2O twice then resuspended in ice-cold ddH2O to an OD600 of 55-65. The electrocompetent cells (50 μL) and 1 ng of Golden Gate assembled plasmid with the UBP within the sfGFP and tRNAPyl genes (see Golden Gate Assembly of Plasmids) were transferred to a pre-chilled electroporation cuvette (0.2-cm-gap), then electroporated (Gene Pulser II; Bio-Rad) according to manufacturer's recommendations (voltage […], capacitor 2.5 μF, resistor 200Ω), and then immediately diluted with 950 μL of media. An aliquot (40 μL) of the transformation was then diluted five-fold in media supplemented with dNaMTP (150 μM) and dTPT3TP (10 μM) for a final volume of 200 μL then allowed to recover for 1 h shaking at 37° C. […] The culture was monitored for cell growth (Envision 2103 Multilabel Plate Reader with a 590/20 nm filter) and then collected at an OD600˜1.0. […]

[2] = system: tRNA^Pyl(GYT) gene; assay: UBP retention in the tRNA gene by streptavidin gel shift assay (in vivo screen of dXTPs); type: cell-based, E. coli; conditions: dTPT3TP 10 μM, strain YZ3
Method: as §1, §2
In vivo Translation Screen of dXTPs. An overnight culture of the SSO strain YZ3 carrying the pGEX-MbPylRS TetR plasmid was grown in 2×YT supplemented with 50 mM potassium phosphate, […] chloramphenicol and 100 μg/mL carbenicillin (herein referred to in this section as “media”), then diluted back to an OD600 of 0.03 in the same media and grown to an OD600 of 0.4 to 0.6. The culture was then chilled with shaking over ice-water for 15 minutes then pelleted by centrifugation at 3,200×g for 10 min. Cells were then resuspended and washed with ice-cold ddH2O twice then resuspended in ice-cold ddH2O to an OD600 of 55-65. […] The culture was monitored for cell growth (Envision 2103 Multilabel Plate Reader with a 590/20 nm filter) and then collected at an OD600˜1.0. […]

[3] = system: sfGFP^151(AXC); assay: Bulk culture sfGFP fluorescence normalized to cell growth (in vivo screen of dXTPs); type: cell-based, E. coli; conditions: for sfGFP fluorescence normalized to cell growth: AzK added
Method: as §1
Analysis of reporter protein production. To characterize the amount of protein produced, bulk culture fluorescence normalized to cell growth was measured 2.5 h after the induction of protein expression (FIG. 3C). […] Cells growth was not observed when provided with only 5 μM dNaMTP. While similar at high concentrations, at lower concentrations the use of each dXTP analog results in a greater AzK-dependent increase in fluorescence than does the use of dNaMTP.
Ten-fold dilutions of the glycerol stock were re-plated onto solid growth media supplemented with dNaMTP (150 μM), dTPT3TP (10 μM), and 2% w/v agar, then grown at 37° C. overnight. Single colonies were picked and grown in growth media (300 μL) supplemented with corresponding dXTP (various concentrations), and dTPT3TP (10 μM), then monitored for cell growth and collected at an OD600˜1.0. Once all samples were collected, samples were left on ice overnight. The samples were then re-diluted to OD600˜0.1, to a final volume of 300 μL and provided with the corresponding dXTP (various concentrations), and dTPT3TP (10 μM). […] From this point on, cells were monitored for growth and fluorescence. […]

[4] = system: sfGFP^151(AXC); assay: Fidelity of AzK incorporation into sfGFP, DBCO-TAMRA gel shift / western blot (in vivo screen of dXTPs); type: cell-based, E. coli
Method: Analysis of reporter protein fidelity. To directly assess the fidelity of unnatural protein production, cells were harvested 2.5 h after the induction of protein expression and the sfGFP produced was purified and subjected to a strain-promoted azide-alkyne cycloaddition reaction with dibenzocyclooctyne (DBCO) linked to a TAMRA dye by four PEG units. In addition to tagging the proteins containing the ncAA with a detectable fluorophore, conjugation produces a shift in electrophoretic migration, allowing quantification of protein containing AzK as a percentage of the total protein produced (i.e. fidelity of ncAA incorporation; FIG. 3D).
Ten-fold dilutions of the glycerol stock were re-plated onto solid growth media supplemented with dNaMTP (150 μM), dTPT3TP (10 μM), and 2% w/v agar, then grown at 37° C. overnight. Single colonies were picked and grown in growth media (300 μL) supplemented with corresponding dXTP (various concentrations), and dTPT3TP (10 μM), then monitored for cell growth and collected at an OD600˜1.0. Once all samples were collected, samples were left on ice overnight. The samples were then re-diluted to OD600˜0.1, to a final volume of 300 μL and provided with the corresponding dXTP (various concentrations), and dTPT3TP (10 μM). The remaining culture not used was pelleted and stored at −80° C. for subsequent plasmid isolation using the ZR Plasmid Prep Kit (Zymo Research) to determine UBP retention. When cultures reached an OD600˜0.4-0.6, they were provided with NaMTP (250 μM) and TPT3TP (30 μM), and AzK (10 mM) (or ddH2O for cultures grown in the absence of AzK). Samples were shielded from light after addition of AzK to prevent photodegradation. These samples were then grown at 37° C. for 20 min before adding 1 mM IPTG and grown at 37° C. for an additional 1 h to induce T7 RNAP and transcription of tRNAPyl and PylRS. From this point on, cells were monitored for growth and fluorescence. Expression of sfGFP was then induced with anhydrotetracycline (100 ng/mL).
Affinity Purification of sfGFP. Cell pellets collected from translation experiments were resuspended in BugBuster (100 μL 1×, EMD Millipore) and shaken at room temperature for 15 min. The cell lysate was then diluted with Buffer W (380 μL; 50 mM HEPES pH 8, 150 mM NaCl, 1 mM EDTA) and magnetic Strep-Tactin beads (20 μL, 5% (v/v) suspension of MagStrep ‘type3’ XT beads, IBA Lifesciences) equilibrated in Buffer W, were added. The mixture was gently inverted at 4° C. for 30 min. […] Purified proteins were quantified using the Qubit Protein Assay Kit (Thermo Fisher Scientific). […]

[5] = system: E. coli strain YZ3; assay: Cell growth / viability in the in vivo screen of dXTPs; type: cell-based; conditions: dXTP 5 μM
Method: as §1, with “After an additional 1 h of incubation, the expression of sfGFP^151(AXC) was initiated by the addition of anhydrotetracycline (aTc, 100 ng/mL).” left out
Analysis of reporter protein production. To characterize the amount of protein produced, bulk culture fluorescence normalized to cell growth was measured 2.5 h after the induction of protein expression (FIG. 3C). […] While similar at high concentrations, at lower concentrations the use of each dXTP analog results in a greater AzK-dependent increase in fluorescence than does the use of dNaMTP.
Ten-fold dilutions of the glycerol stock were re-plated onto solid growth media supplemented with dNaMTP (150 μM), dTPT3TP (10 μM), and 2% w/v agar, then grown at 37° C. overnight. […] From this point on, cells were monitored for growth and fluorescence. […]

[6] = dXTP 5 μM (lowest concentration)

Row | SMILES | UBP retention in the sfGFP^151(AXC) gene ([1]; dXTP 10 μM) | UBP retention in the sfGFP^151(AXC) gene ([1]; dXTP 150 μM) | UBP retention in the tRNA^Pyl(GYT) gene ([2]; dXTP 10 μM) | sfGFP fluorescence normalized to cell growth ([3]; dXTP 150 or 10 μM) | Fidelity of ncAA incorporation (protein shift) ([4]; dXTP 10 μM) | Cell growth / survival [5] | UBP retention in the sfGFP^151(AXC) gene [1, 6] | UBP retention in the tRNA^Pyl(GYT) gene [2, 6] | sfGFP fluorescence normalized to cell growth ([3]; dXTP 5 μM) | AzK-dependent increase in fluorescence ([3]; lower dXTP concentrations, compared with dNaMTP) | Fidelity of ncAA incorporation (protein shift) ([4]; dXTP 5 μM) | Quantity of pure unnatural protein produced ([4]; especially at lower concentrations)
1 | COc1cc2ccccc2cc1[C@H]1C[C@H](O)[C@@H](COP(=O)(O)OP(=O)(O)OP(=O)(O)O)O1 [dNaMTP] | 73% | 99% | 71% | significantly less fluorescence at 10 μM than at 150 μM | dropped precipitously | not observed; also recorded: did not survive | – | – | – | – | – | –
2 | COc1cc(C)c(F)cc1[C@H]1C[C@H](O)[C@@H](COP(=O)(O)OP(=O)(O)OP(=O)(O)O)O1 [d5FMTP] | 96% | – | 82% | – | remained high | – | 94% and ~93% | 83% | remained the same | largest AzK-dependent increase in fluorescence | remained similar to that observed at 10 μM | greatest quantity of pure unnatural protein
